Results reported in article PMC6503114, “Application of Antimicrobial Peptides of the Innate Immune System in Combination With Conventional Antibiotics—A Novel Way to Combat Antibiotic Resistance?” (Frontiers in Cellular and Infection Microbiology, 2019).
Marks after values point to notes of the source that are not given here. Where no end group is shown, it is not given here.

Tests used:
E. coli ML-35p = assay: Bacterial membrane permeabilization assay, inner membrane (ONPG); assay type: cell-based, Escherichia coli; details: ONPG marker; for effect on cytoplasmic membrane permeability, substance alone (in words): ¼ MIC
Source text: The method is based on the certain features of the specifically designed E. coli ML-35p bacterial strain. As its parental strain E. coli ML-35, this bacterium constitutively expresses cytoplasmic β-galactosidase, but is unable to transport β-galactoside containing substrates through the inner membrane in normal circumstances due to the lack of lactose permease. […] If the cytoplasmic membrane of the bacterium is damaged, the chromogenic marker o-nitrophenyl-β-D-galactoside (ONPG) penetrates into the cell and, when digested by bacterial β-galactosidase, produces a colored product o-nitrophenol. The accumulation of the latter can be spectrophotometrically detected at a wavelength of 420 nm.
Escherichia coli ML-35p was cultivated in the sterile 3% Trypticase soy broth (TSB) for 18 h at 37°C, then washed three times with 10 mM sodium phosphate buffer, pH 7.4 (10 min centrifugation at 600 g and 4°C), diluted up to the OD of 0.4 at 620 nm (1 × 10^8 CFU/ml concentration), and used immediately or kept on ice until the start of the test. […] Controls contained equivalent volume of acidified water instead of antimicrobial agent(s). The assay was started by adding the bacteria and was run at 37°C, with periodical shaking. Optical density (OD) measurement at 420 nm was performed every minute for 1–2 h using SpectraMax 250 Microplate Spectrophotometer (Molecular Devices, USA) and its SoftMax PRO software.
(A) Permeability of the inner membrane for a chromogenic marker o-nitrophenyl-β-D-galactoside (ONPG). ¼ of minimal inhibitory concentrations (MICs) of antimicrobial peptides (AMPs) and antibiotics were used when alone, and ¼ MIC of AMP + ¼ MIC of antibiotic when in combination. Curves illustrate ONPG degradation by the cytoplasmic β-galactosidase of bacteria, when the membranes are damaged by test substances. Curves slope and the time of their rising to the plateau correspond to the extent of this damage. […] Nitrocefin is a substrate for the periplasmic β-lactamase of the bacteria. RIF, rifampicin; PMB, polymyxin B; GEN, gentamicin; OFL, ofloxacin; OX, oxacillin.

A. baumannii 7226/16 [1] = assay: microbe, parasite or virus in culture; assay type: cell-based; details: Acinetobacter baumannii; A. baumannii 7226/16, drug-resistant clinical isolate
Protocol: (§1) Prior to the “checkerboard” synergy test the minimal inhibitory concentrations (MIC) of individual substances were determined using broth microdilution assay. Testing was performed in 60-well polystyrene Terasaki microplates with V-shaped bottom generally according to the guidelines of the European Committee for Antimicrobial Susceptibility Testing with subtle modifications designed for AMP testing (Tossi et al., [1997]; Wiegand et al., [2008]). Cultivation of bacteria was carried out in 2.1% Müller-Hinton broth at 37°C with shaking. Two-fold serial dilutions of peptides, antibiotics and other antimicrobials were made with 10 mM sodium phosphate buffer, pH 7.4, containing 0.1% of BSA. The plates were preliminary incubated with 0.1% BSA for 1 h at 37°C to reduce a non-specific binding of peptides to the plates. After that BSA was removed, and serial dilutions were added into the plate wells in triplicates followed by the same volume of the suspension of bacterial cells in logarithmic phase of growth in concentration of 1 × 10^6 CFU/ml. After the 18 h overnight incubation at 37°C, the MIC value for each compound was determined as its lowest concentration completely inhibiting the visible growth of bacteria. The final results were calculated as median values based on 3–6 independent experiments.

E. coli ESBL 521/17 [2] = assay: microbe, parasite or virus in culture; assay type: cell-based; details: Escherichia coli, ESBL521/17; E. coli ESBL 521/17, drug-resistant clinical isolate; square brackets = twice the maximal tested concentration
Protocol: as §1

[3] = system: K. pneumoniae ESBL 344/17; assay: microbe, parasite or virus in culture; assay type: cell-based; details: Klebsiella pneumoniae, ESBL344/17; K. pneumoniae ESBL 344/17, drug-resistant clinical isolate
Protocol: as §1

P. aeruginosa MDR 522/17 [4] = assay: microbe, parasite or virus in culture; assay type: cell-based; details: Pseudomonas aeruginosa, MDR522/17; P. aeruginosa MDR 522/17, drug-resistant clinical isolate
Protocol: as §1

S. aureus 1399/17 [5] = assay: microbe, parasite or virus in culture; assay type: cell-based; details: Staphylococcus aureus; S. aureus 1399/17, drug-resistant clinical isolate; read-out: MIC
Protocol: as §1

E. coli ESBL 521/17 [6] = assay: Checkerboard titration (FICI); assay type: cell-based, Escherichia coli
Protocol: (§2) The combined antimicrobial action of AMPs and other antimicrobial compounds was assessed using checkerboard titration approach under the conditions similar to that of the microdilution assay. According to checkerboard titration template, one component (A) of the combination was diluted along the rows of the plate, while the other (B) was diluted down the columns, thereby creating the variety of mixtures with different concentrations of tested compounds. 2.5 μl of corresponding solutions of the components A and B were added into each well of the plate. Into the first column and the last row the same amount of 10 mM sodium phosphate buffer, pH 7.4, containing 0.1% of BSA was introduced instead of the second component. Thus, all wells contained 5 μl of antimicrobial compounds solutions (solo or in combination). The same volume of bacterial suspension, prepared as described for microdilution assay, was added into each well. The results were recorded after the overnight incubation, visually indicating the presence or absence of the microbial growth in the corresponding wells. Based on the obtained data the isobolograms of combined action were plotted and/or Fractional Inhibitory Concentration Indices (FICI) were calculated. […] Depending on the minimal value of the FICI the combined effect of the combination was classified as antagonism (FICI > 2), independent action (1 < FICI ≤ 2), additivity (0.5 < FICI ≤ 1) or synergy (FICI ≤ 0.5), as is recommended in the literature and due to some drawbacks of the serial dilution method (Hsieh et al., [1993]; Orhan et al., [2005]; Fehri et al., [2007]). FICIs were assessed in 3–6 independent experiments and median values were used to define the nature of interaction.

A. baumannii 7226/16 [7] = assay: Checkerboard titration (FICI); assay type: cell-based, Acinetobacter baumannii
Protocol: as §2

P. aeruginosa MDR 522/17 [8] = assay: Checkerboard titration (FICI); assay type: cell-based, Pseudomonas aeruginosa
Protocol: as §2

[9] = system: K. pneumoniae ESBL 344/17; assay: Checkerboard titration (FICI); assay type: cell-based, Klebsiella pneumoniae
Protocol: as §2

S. aureus 1399/17 [10] = assay: Checkerboard titration (FICI); assay type: cell-based, Staphylococcus aureus
Protocol: as §2

[11] = antibiotic in combination with ChBac3.4
[12] = antibiotic in combination with PG-1

Compound	effect on cytoplasmic membrane permeability, substance alone (in words) (E. coli ML-35p)	effect on cytoplasmic membrane permeability in presence of gentamicin vs peptide/protein alone (in words) (E. coli ML-35p; ¼ MIC + ¼ MIC gentamicin)	MIC (A. baumannii 7226/16 [1])	MIC (E. coli ESBL 521/17 [2])	MIC [3]	MIC (P. aeruginosa MDR 522/17 [4])	MIC (S. aureus 1399/17 [5])	Minimal FICI (E. coli ESBL 521/17 [6]; [11])	Minimal FICI (E. coli ESBL 521/17 [6]; [12])	Minimal FICI (A. baumannii 7226/16 [7]; [11])	Minimal FICI (A. baumannii 7226/16 [7]; [12])	Minimal FICI (P. aeruginosa MDR 522/17 [8]; [11])	Minimal FICI (P. aeruginosa MDR 522/17 [8]; [12])	Minimal FICI [9, 11]	Minimal FICI [9, 12]	Minimal FICI (S. aureus 1399/17 [10]; [11])	Minimal FICI (S. aureus 1399/17 [10]; [12])	development of membrane-damaging effect in combination with rifampicin (in words) (E. coli ML-35p; ¼ MIC + ¼ MIC rifampicin)
CNC(C)C1CCC(N)C(OC2C(N)CC(N)C(OC3OCC(C)(O)C(NC)C3O)C2O)O1 (centres unmarked) [Gentamicin]	no substantial increase																	
CC[C@H](C)[C@H](NC(=O)[C@H](CCCCN)NC(=O)[C@H](CCC(=O)O)NC(=O)[C@H](CCCCN)NC(=O)[C@H](CO)NC(=O)[C@H](CCCCN)NC(=O)[C@H](CCCNC(=N)N)NC(=O)[C@H](Cc1ccccc1)NC(=O)[C@H](Cc1ccccc1)NC(=O)[C@H](CC(=O)O)NC(=O)CNC(=O)[C@H](CC(C)C)NC(=O)[C@@H](N)CC(C)C)C(=O)NCC(=O)N[C@@H](CCCCN)C(=O)N[C@@H](CCC(=O)O)C(=O)N[C@@H](Cc1ccccc1)C(=O)N[C@@H](CCCCN)C(=O)N[C@@H](CCCNC(=N)N)C(=O)N[C@H](C(=O)N[C@H](C(=O)N[C@@H](CCC(N)=O)C(=O)N[C@@H](CCCNC(=N)N)C(=O)N[C@H](C(=O)N[C@@H](CCCCN)C(=O)N[C@@H](CC(=O)O)C(=O)N[C@@H](Cc1ccccc1)C(=O)N[C@@H](CC(C)C)C(=O)N[C@@H](CCCNC(=N)N)C(=O)N[C@@H](CC(N)=O)C(=O)N[C@@H](CC(C)C)C(=O)N[C@H](C(=O)N1CCC[C@H]1C(=O)N[C@@H](CCCNC(=N)N)C(=O)N[C@H](C(=O)N[C@@H](CCC(=O)O)C(=O)N[C@@H](CO)C(=O)O)[C@@H](C)O)C(C)C)[C@@H](C)CC)C(C)C)[C@@H](C)CC [LL-37]	quite slow enhance of the membrane permeability	developing rather quickly																
CC1COc2c(N3CCN(C)CC3)c(F)cc3c(=O)c(C(=O)O)cn1c23 (centres unmarked) [Ofloxacin]			25 µM	50 µM	0.25 µM	> 50 µM	> 50 µM	0.75	0.75	0.5^*	0.62	0.75	1.12	0.75	0.5	0.125^*	0.56	
Cc1onc(-c2ccccc2)c1C(=O)N[C@@H]1C(=O)N2[C@@H]1SC(C)(C)[C@@H]2C(=O)O [Oxacillin]			> 50 µM	> 50 µM	> 50 µM	> 50 µM	> 50 µM	1.12	1.12	1.12	0.75	1.12	1.12	1.12	1.12	0.25^*	1.12	
RFRLPFRRPPIRIHPPPFYPPFRRFL-NH2 (C-terminus assumed) [ChBac3.4]	no substantial effect																	slight acceleration
